Reference: patent US7981927B2, “Steroids derivatives as selective progesterone receptor modulators” (Janssen Pharmaceutica N.V., priority 2007, dated 2011)

System: T47D human breast cancer cells
Experiment: T47D human breast cancer cells alkaline phosphatase assay
Assay type: cell-based
Settings: 24 h with test compound, alkaline phosphatase luminescence readout
Description: T47D human breast cancer cells were grown in RPMI medium without phenol red (Invitrogen) containing 10% (v/v) heat-inactivated fetal bovine serum (FBS; Hyclone), 1% (v/v) penicillin-streptomycin (Invitrogen), 1% (w/v) glutamine (Invitrogen), and […] insulin (Sigma). Incubation conditions were 37° C. in a humidified 5% (v/v) carbon dioxide environment.
The cells were plated in 96-well tissue culture plates at 10,000 cells per well in assay medium [RPMI medium without phenol red (Invitrogen) containing 5% (v/v) charcoal-treated FBS (Hyclone) and 1% (v/v) penicillin-streptomycin (Invitrogen)]. Two days later, the medium was decanted and test compound or control were added at a final concentration of 0.1% (v/v) dimethyl sulfoxide in fresh assay medium. Twenty-four hours later, an alkaline phosphatase assay was performed using a SEAP kit (BD Biosciences Clontech, Palo Alto, Calif.). Briefly, the medium was decanted and the cells were fixed for 30 minutes at room temperature with 5% (v/v) formalin (Sigma). The cells were washed once with room temperature Hank's buffered saline solution (Invitrogen). […] After 1 hour incubation at room temperature in the dark, the lysate was transferred to a white 96-well plate (Dynex) and luminescence was read using a LuminoSkan Ascent (Thermo Electron, Woburn, Mass.). […]

`CN(C)c1ccc([C@@H]2C[C@]3(C)C(=O)OCC[C@H]3[C@@H]3CCC4=CC(=O)CCC4=C23)cc1` (stereo in doubt) [compound 1, 11-(4-Dimethylamino-phenyl)-12a-methyl-3,4,4a,5,6,9,10,11,12,12a-decahydro-4bH-2-oxa-chrysene-1,8-dione] gave an IC50 of 0.75 µM.

`CC#C[C@]1(O)OCC[C@H]2[C@@H]3CCC4=CC(=O)CCC4=C3[C@@H](c3ccc(N(C)C)cc3)C[C@@]21C` (stereo in doubt) [compound 2, 11-(4-Dimethylamino-phenyl)-1-hydroxy-12a-methyl-1-prop-1-ynyl-1,3,4,4a,4b,5,6,9,10,11,12,12a-dodecahydro-2-oxa-chrysen-8-one] was tested, and the IC50 was 0.033 µM.
